In general, IC50 refers to the concentration that gives 50% inhibition. Low values mean greater potency, high ones weaker potency.

The target of one assay is T1, guinea pig αβγ-ENaC (Cavia porcellus, UniProt B8QP44+H0UT09+H0VNV9).
T1 construct: gene SCNN1A; heterotrimer in Xenopus laevis oocytes; printed GenBank ids are 5'RACE products
T1 sequence (B8QP44 1-656): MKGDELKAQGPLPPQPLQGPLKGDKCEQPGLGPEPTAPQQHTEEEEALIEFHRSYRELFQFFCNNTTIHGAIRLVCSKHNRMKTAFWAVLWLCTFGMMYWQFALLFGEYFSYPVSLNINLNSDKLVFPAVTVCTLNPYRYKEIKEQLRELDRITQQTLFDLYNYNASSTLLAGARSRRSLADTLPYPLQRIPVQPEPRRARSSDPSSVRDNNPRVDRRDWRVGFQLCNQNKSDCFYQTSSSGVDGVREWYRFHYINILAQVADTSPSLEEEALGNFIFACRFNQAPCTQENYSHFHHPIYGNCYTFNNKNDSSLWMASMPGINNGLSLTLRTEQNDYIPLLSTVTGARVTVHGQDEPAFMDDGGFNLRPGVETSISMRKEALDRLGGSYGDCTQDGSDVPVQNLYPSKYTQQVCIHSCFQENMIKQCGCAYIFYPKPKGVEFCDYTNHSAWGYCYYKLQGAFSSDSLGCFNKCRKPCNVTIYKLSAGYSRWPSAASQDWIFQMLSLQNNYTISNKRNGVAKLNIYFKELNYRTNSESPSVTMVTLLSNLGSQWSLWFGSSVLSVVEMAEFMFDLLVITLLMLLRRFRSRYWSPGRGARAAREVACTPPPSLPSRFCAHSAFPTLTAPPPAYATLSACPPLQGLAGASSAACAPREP
T1 sequence (H0VNV9 1-640): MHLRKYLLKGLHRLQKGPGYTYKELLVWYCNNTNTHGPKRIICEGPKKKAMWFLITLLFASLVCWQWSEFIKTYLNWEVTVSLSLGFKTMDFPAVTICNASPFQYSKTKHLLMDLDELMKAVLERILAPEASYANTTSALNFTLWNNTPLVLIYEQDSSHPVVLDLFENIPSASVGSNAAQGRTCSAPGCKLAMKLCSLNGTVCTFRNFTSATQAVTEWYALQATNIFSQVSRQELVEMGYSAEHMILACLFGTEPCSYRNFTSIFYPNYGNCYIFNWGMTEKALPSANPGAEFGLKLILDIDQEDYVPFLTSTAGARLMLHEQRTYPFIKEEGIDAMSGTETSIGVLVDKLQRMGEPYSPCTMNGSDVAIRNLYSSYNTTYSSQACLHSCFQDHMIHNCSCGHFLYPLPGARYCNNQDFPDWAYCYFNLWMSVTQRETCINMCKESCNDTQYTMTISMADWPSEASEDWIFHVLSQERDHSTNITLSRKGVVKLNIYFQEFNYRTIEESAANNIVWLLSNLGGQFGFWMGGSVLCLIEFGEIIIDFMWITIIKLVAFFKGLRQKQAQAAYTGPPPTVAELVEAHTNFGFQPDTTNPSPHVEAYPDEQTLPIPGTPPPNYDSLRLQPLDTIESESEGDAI
T1 sequence (H0UT09 1-653): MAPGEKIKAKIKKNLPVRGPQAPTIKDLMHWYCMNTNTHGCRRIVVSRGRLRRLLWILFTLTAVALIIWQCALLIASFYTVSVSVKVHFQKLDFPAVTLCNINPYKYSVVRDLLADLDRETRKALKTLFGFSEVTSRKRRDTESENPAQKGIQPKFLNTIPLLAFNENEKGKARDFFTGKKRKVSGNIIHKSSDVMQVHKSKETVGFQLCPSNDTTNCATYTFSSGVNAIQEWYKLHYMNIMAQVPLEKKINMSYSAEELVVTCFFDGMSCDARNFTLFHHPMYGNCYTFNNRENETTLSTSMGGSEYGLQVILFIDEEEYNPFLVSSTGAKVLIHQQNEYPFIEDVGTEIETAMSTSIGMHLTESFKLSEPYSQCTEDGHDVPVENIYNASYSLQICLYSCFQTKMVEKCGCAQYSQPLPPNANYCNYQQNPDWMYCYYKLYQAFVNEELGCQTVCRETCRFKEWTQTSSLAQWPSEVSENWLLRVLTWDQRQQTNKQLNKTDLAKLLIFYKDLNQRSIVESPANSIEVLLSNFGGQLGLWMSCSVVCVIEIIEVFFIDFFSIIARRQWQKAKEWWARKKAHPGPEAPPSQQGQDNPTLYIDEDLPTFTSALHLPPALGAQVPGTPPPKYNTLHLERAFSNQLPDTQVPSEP
Briefly: two-electrode voltage clamp, Xenopus oocytes, concentration-response. Type of assay: cell-based. For orientation: Two-electrode voltage clamp holds a large cell at a set potential and records current.

In a further assay the target is T2, guinea pig δβγ-ENaC (Cavia porcellus, UniProt H0UT09+H0VJS1+H0VNV9).
T2 construct: gene Scnn1d; heterotrimer in Xenopus laevis oocytes; δ with fused exons 11/12
T2 sequence (H0VJS1 1-618): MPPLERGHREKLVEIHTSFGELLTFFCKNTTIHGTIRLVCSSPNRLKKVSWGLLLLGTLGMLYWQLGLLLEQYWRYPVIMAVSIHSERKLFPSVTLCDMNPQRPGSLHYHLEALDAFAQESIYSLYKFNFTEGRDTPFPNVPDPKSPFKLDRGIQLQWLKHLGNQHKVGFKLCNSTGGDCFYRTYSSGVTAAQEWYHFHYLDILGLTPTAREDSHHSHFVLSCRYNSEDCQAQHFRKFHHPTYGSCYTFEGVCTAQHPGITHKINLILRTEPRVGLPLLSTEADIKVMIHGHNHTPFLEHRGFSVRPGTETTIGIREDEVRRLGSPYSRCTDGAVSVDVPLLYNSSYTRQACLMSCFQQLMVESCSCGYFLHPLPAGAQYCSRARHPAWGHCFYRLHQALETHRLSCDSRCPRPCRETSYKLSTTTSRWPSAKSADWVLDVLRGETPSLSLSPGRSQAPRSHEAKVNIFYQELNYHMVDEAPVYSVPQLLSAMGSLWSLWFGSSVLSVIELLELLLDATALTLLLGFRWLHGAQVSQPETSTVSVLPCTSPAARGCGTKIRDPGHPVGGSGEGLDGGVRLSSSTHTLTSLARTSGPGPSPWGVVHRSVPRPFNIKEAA
T2 sequence (H0VNV9 1-640): T1 sequence (H0VNV9 1-640)
T2 sequence (H0UT09 1-653): T1 sequence (H0UT09 1-653)
The description is as above. Type of assay: cell-based. The settings on record: channel block; -60 mV; ORS 90 mM NaCl, pH 7.4, room temperature.

As to `N=C(N)NC(=O)c1nc(Cl)c(N)nc1N` [amiloride], the values for the IC50 on guinea pig αβγ-ENaC and on guinea pig δβγ-ENaC were 150 ± 20 nM and 240 ± 50 nM, respectively.

The values are drawn from publication PMC8662647, “Two Functional Epithelial Sodium Channel Isoforms Are Present in Rodents despite Pronounced Evolutionary Pseudogenization and Exon Fusion” (Molecular Biology and Evolution, 2021).
